Measurements taken from PMC3326528 (Journal of the American Chemical Society, 2007).

Experiments:
[1] = molecular target: apo FDAS (Streptantibioticus cattleyicolor, UniProt Q70GK9); test: ITC binding of ligands to apo FDAS; set-up: species or system Streptomyces cattleya; settings: for Stoichiometry (N) / Ka (app) / S / ΔH: 25 °C; for Stoichiometry (N): 20mM sodium phosphate buffer (pH 7.8), apo FDAS; for Ka (app) / S / ΔH: pH 7.8, apo FDAS
[2] = molecular target: T1, FDAS (Streptantibioticus cattleyicolor, UniProt Q70GK9); test: Reactivity of SAH / homocysteine with FDAS; type: biochemical, Streptomyces cattleya
[3] = molecular target: FDAS (native, wild type) (Streptantibioticus cattleyicolor, UniProt Q70GK9); test: Isothermal titration calorimetry; type: binding
[4] = molecular target: T1, FDAS; test: Discontinuous assay of FDAS; type: biochemical, Streptomyces cattleya; settings: F^− 200mM
[5] = molecular target: D16N mutation of FDAS (Streptantibioticus cattleyicolor, UniProt Q70GK9, D16N); test: ITC binding of SAM to D16N mutant; set-up: species or system Streptomyces cattleya
[6] = system: FDAS; test: Discontinuous assay of FDAS; type: biochemical, Streptomyces cattleya; settings: turnover at a fixed substrate concentration compared to the wild type
[7] = molecular target: T1, FDAS; test: Active site titration of FDAS; type: biochemical, Streptomyces cattleya
[8] = molecular target: FDAS pre-incubated with 5′-FDA (Streptantibioticus cattleyicolor, UniProt Q70GK9); settings: 1mM L-methionine titrated into 0.08 mM FDA and 0.02 mM apo FDAS mixture
[9] = molecular target: FDAS pre-incubated with adenosine (Streptantibioticus cattleyicolor, UniProt Q70GK9); settings: 1mM L-methionine titrated into 0.024 mM Adenosine and 0.02 mM apo FDAS mixture

| Compound | Kd [3] [µM] | Stoichiometry (N) ([1]; ITC) | Ka (app) ([1]; ITC) | S ([1]; ITC) [kcal/mol] | ΔH ([1]; ITC) [kcal/mol] | other results |
| --- | --- | --- | --- | --- | --- | --- |
| F [fluoride] | – | – | – | – | – | binding to the protein by ITC ([1]; either as apo or SAH complex): too weak to measure |
| NC(CCS)C(=O)O (stereo not shown) [homocysteine] | – | – | – | – | – | SAH production by the enzyme (HPLC) ([2]; 5-ClDA and homocysteine): nor is any detected; SAH production by the enzyme (HPLC) ([2]; homocysteine and 5′-FDA, reverse reaction): no detectable production of SAH |
| C[S+](CC[C@H](N)C(=O)[O-])C[C@H]1O[C@@H](n2cnc3c(N)ncnc32)[C@H](O)[C@@H]1O (stereo partly drawn) [SAM, S-adenosyl-L-methionine] | 1.25 | 0.56 ± 0.01 | 8.0 ± 0.5 ×10^5 M^−1 | -0.058 | -25 ± 0.4 | SAM concentration above which FDAS displays substrate inhibition [4]: greater than 20 μM; SAM binding by ITC [5]: does not bind with measurable affinity |
| Nc1ncnc2c1ncn2[C@@H]1O[C@H](CO)[C@@H](O)[C@H]1O [Ade, adenosine] | 0.82 | 0.67 ± 0.01 | 12.2 ± 1.2 ×10^5 M^−1 | -0.04 | -20 ± 0.4 | – |
| 5′-fluoro-5′-deoxy adenosine synthetase [FDAS] | – | – | – | – | – | % activity [6]: 100%; burst size (active sites) ([7]; 50 μM SAM mixed with FDAS (2 μM), reaction initiated with 100 mM F^−): 0.1 µM; burst size (active sites) ([7]; 100 mM F^− pre-mixed with FDAS (2 μM), reaction initiated by 50 μM SAM): 0.6 µM |
| Nc1ncnc2c1ncn2[C@@H]1O[C@H](CSCC[C@H](N)C(=O)O)[C@@H](O)[C@H]1O [SAH, S-adenosyl homocysteine] | 0.0331 | 0.72 ± 0.01 | 302 ± 74 ×10^5 M^−1 | -0.098 | -40 ± 0.5 | binding affinity relative to SAM (times more tightly bound) ([1]; ITC): 40 times; effect on the reaction of SAM with F^− [2]: inhibits; substrate of FDAS in the forward direction [2]: not a substrate; 5′-ClDA production by the enzyme ([2]; incubation of Cl^− and SAH): does not produce 5′-ClDA |
| Nc1ncnc2c1ncn2[C@@H]1O[C@H](CF)[C@@H](O)[C@H]1O [FDA, 5′-fluoro-5′-deoxy adenosine] | – | 1.16 ± 0.01 | 45.5 ± 6.5 ×10^5 M^−1 | -0.017 | -14 ± 0.1 | – |
| Nc1ncnc2c1ncn2[C@@H]1O[C@H](CO)C[C@H]1O [3′-deoxy-Ade] | – | 0.37 ± 0.02 | 4.5 ± 0.6 ×10^5 M^−1 | -0.027 | -16 ± 0.9 | reduction of affinity relative to adenosine ([1]; ITC): 3 fold |
| Nc1ncnc2c1ncn2[C@@H]1O[C@H](CO)C[C@H]1O [3′-deoxy-Ade, 3′-deoxyadenosine] | 2.22 | – | – | – | – | – |
| Nc1ncnc2c1ncn2[C@@H]1O[C@H](CF)[C@@H](O)[C@H]1O [FDA, 5′-fluoro-5′-deoxyadenosine (5′-FDA)] | 0.22 | – | – | – | – | – |
| CSCC[C@H](N)C(=O)O [L-methionine] | – | – | – | – | – | S [8]: -0.036 kcal/mol; ΔH [8]: -17 ± 2 kcal/mol; S [9]: -0.022 kcal/mol; Stoichiometry (N) [9]: 0.48 ± 0.11; ΔH [9]: -13 ± 3 kcal/mol |
